What all share (format): cell-based
The test system of assay [1] is SH-SY5Y (human neuroblastoma) cells. The assay can be described thus: Cell viability, Cell Titer Glo 2.0 assay. Particulars: read-out: Viability SHSY5Y.3 GI50. In outline: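 Following a 72 h incubation (37 °C, 5% CO2, 0.1% DMSO final), compound toxicity toward SH-SY5Y cells was quantified by CellTiter-Glo 2.0.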
In a further assay the test system is MYB mRNA. The assay can be described thus: Gene panel canonical junction qPCR assay, decrease in CJ mRNA, Table 3. The method in brief:
(§1)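 Eleven-point dose responses from 10 uM final, 24 h, DMSO ≤0.25%, in A673 or K562 cells. Relative quantification by 2^(−ΔΔCt) against housekeeper and vehicle was converted to percent response over fixed ΔCt windows and fitted to yield IC50.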
A general note: Real-time PCR tracks product formation cycle by cycle.

The subject of a further assay is HTT mRNA. Described as above. The method in brief:
as §1

Another assay relates to SMN2 mRNA. The description is as above. The method in brief: as §1
Setting [2] is: decrease in canonical junction (CJ) mRNA, gene panel qPCR, Table 3.
Where [3] appears, read: decrease in CJ mRNA levels, canonical junction qPCR, gene panel.

For the compound `CO[C@H]1C[C@@H](N[C@H]2CCN(c3ccc(C(=O)Nc4cc(F)c5nc(C)cn5c4)c4nn(C)cc34)C2)C1` [Compound 277, N-(8-fluoro-2-methylimidazo[1,2-a]pyridin-6-yl)-4-((S)-3-(((1s,3R)-3-methoxy-cyclobutyl)amino)pyrrolidin-1-yl)-2-methyl-2H-indazole-7-carboxamide], in assay [1], the GI50 was in the range of 1000 to 10000 nM. Also, the IC50 in the assay on MYB mRNA (setting [2]) is 100 to 1000 nM; in the assay on HTT mRNA (setting [2]), 1000 to 10000 nM; in the assay with SMN2 mRNA (setting [2]), less than 100 nM.
`Cc1cn2cc(NS(=O)(=O)c3ccc(N4C[C@@H](C)N[C@@H](C)C4)c4cn(C)nc34)cc(F)c2n1` [Compound 279]: in assay [1], the 50% growth inhibitory concentration (GI50) was more than 10000 nM. Also, the IC50 in the assay with MYB mRNA (setting [2]), in the assay on HTT mRNA (setting [2]) and with SMN2 mRNA (setting [2]) was more than 10000 nM throughout.
As for `CCNC1CCN(c2ccc(C(=O)Nc3cc(F)c4nc(COC)cn4c3)c3nn(C)cc23)CC1` [Compound 284, 4-[4-(ethylamino)-1-piperidyl]-N-[8-fluoro-2-(methoxymethyl)imidazo[1,2-a]pyridin-6-yl]-2-methyl-indazole-7-carboxamide], in assay [1], the GI50 was more than 10000 nM. The values for the IC50 in the assay on MYB mRNA (setting [2]), with HTT mRNA (setting [2]) and in the assay on SMN2 mRNA (setting [2]) were 1000 to 10000 nM, 1000 to 10000 nM and 100 to 1000 nM, respectively.
For `COCCN[C@@H]1CCN(c2cc(O)c(C(=O)Nc3cc(F)c4nc(C)cn4c3)c3nn(C)cc23)C1` [Compound 285, N-(8-fluoro-2-methyl-imidazo[1,2-a]pyridin-6-yl)-6-hydroxy-4-[(3R)-3-(2-methoxyethylamino)pyrrolidin-1-yl]-2-methyl-indazole-7-carboxamide], the GI50 in assay [1] was 1000 to 10000 nM. Further, the IC50 is less than 100 nM in the assay with MYB mRNA (setting [2]), more than 10000 nM in the assay on HTT mRNA (setting [2]) and less than 100 nM with SMN2 mRNA (setting [2]).
With `Cc1cn2cc(NC(=O)c3c(O)cc(N4CC[C@@H](NC5CC5)C4)c4cn(C)nc34)cc(F)c2n1` [Compound 288, 4-[(3R)-3-(cyclopropylamino)-pyr-rolidin-1-yl]-N-(8-fluoro-2-methyl-imidazo[1,2-a]pyridin-6-yl)-6-hydroxy-2-methyl-indazole-7-carboxamide], in assay [1], the GI50 is 100 to 1000 nM. For the same compound, the IC50 is less than 100 nM in the assay on MYB mRNA (setting [2]), more than 10000 nM with HTT mRNA (setting [2]) and less than 100 nM in the assay on SMN2 mRNA (setting [2]).
For the compound `Cn1cc2cc(NC(=O)c3c(O)cc(N4CC[C@@H](NC5CC5)C4)c4cn(C)nc34)cc(F)c2n1` [Compound 291, 4-[(3R)-3-(cyclopropylamino)pyrrolidin-1-yl]-N-(7-fluoro-2-methyl-indazol-5-yl)-6-hydroxy-2-methyl-indazole-7-carboxamide], the GI50 in assay [1] lay in the range of 100 to 1000 nM. Moreover, the half-inhibitory concentration (IC50) in the assay with MYB mRNA (setting [2]) was less than 100 nM; in the assay with HTT mRNA (setting [2]) it was 1000 to 10000 nM; in the assay on SMN2 mRNA (setting [2]), less than 100 nM.
On to `CCN[C@@H]1CCN(c2cc(O)c(C(=O)Nc3cc(F)c4nn(C)cc4c3)c3nn(C)cc23)C1` [Compound 294, 4-[(3R)-3-(ethylamino)-pyrrolidin-1-yl]-N-(7-fluoro-2-methyl-indazol-5-yl)-6-hydroxy-2-methyl-indazole-7-carboxamide], for which, in assay [1], the GI50 was 100 to 1000 nM. Moreover, the IC50 was less than 100 nM with MYB mRNA (setting [2]), 100 to 1000 nM in the assay on HTT mRNA (setting [2]) and less than 100 nM in the assay with SMN2 mRNA (setting [2]).
Consider `Cc1cn2cc(NC(=O)c3ccc(N4CCC(NC5CC5)CC4)c4cn(C)nc34)nc2c(C)n1` [Compound 297, 4-[4-(cyclopropylamino)-1-piperidyl]-N-(6,8-dimethylimidazo[1,2-a]pyrazin-2-yl)-2-methyl-indazole-7-carboxamide], for which, in assay [1], the GI50 is 1000 to 10000 nM. The IC50 with MYB mRNA (setting [2]) is 100 to 1000 nM; in the assay with HTT mRNA (setting [2]), more than 10000 nM; with SMN2 mRNA (setting [2]), less than 100 nM.
Turning to `COc1c(NC(=O)c2ncc(N3CCNCC3)c3cn[nH]c23)cn2cc(C)nc2c1F` [Compound 606, N-(8-fluoro-7-methoxy-2-methyl-imidazo[1,2-a]pyridin-6-yl)-4-piperazin-1-yl-1H-pyrazolo[3,4-c]pyridine-7-carboxamide], the GI50 in assay [1] was 100 to 1000 nM. The IC50 in the assay on MYB mRNA (setting [3]) was more than 10000 nM; in the assay with HTT mRNA (setting [3]), more than 10000 nM; in the assay on SMN2 mRNA (setting [3]), 100 to 1000 nM.
As to `COc1c(NC(=O)c2c(F)cc(N3CCNCC3)c3cn[nH]c23)cn2cc(C)nc2c1F` [Compound 607, 6-fluoro-N-(8-fluoro-7-methoxy-2-methyl-imidazo[1,2-a]pyridin-6-yl)-4-piperazin-1-yl-1H-indazole-7-carboxamide], in assay [1], the GI50 lay in the range of 100 to 1000 nM. The IC50 in the assay on MYB mRNA (setting [3]) is less than 100 nM; in the assay with HTT mRNA (setting [3]), 100 to 1000 nM; in the assay with SMN2 mRNA (setting [3]) it was less than 100 nM.
As for `Cc1cn2cc(NC(=O)c3ccc(N4C[C@@H](C)N[C@@H](C)C4)c4c3nnn4C)cc(F)c2n1` [Compound 635], the GI50 in assay [1] lay in the range of 1000 to 10000 nM. In addition, the IC50 was 100 to 1000 nM in the assay on MYB mRNA (setting [3]), 1000 to 10000 nM in the assay on HTT mRNA (setting [3]) and less than 100 nM in the assay on SMN2 mRNA (setting [3]).

As a reminder, the GI50 is the concentration at which growth is held to half of that of the control. Broadly, the IC50 is the concentration that inhibits the measured activity by half.

For the origin of these results see patent publication US20260285853A1, “COMPOUNDS AND METHODS FOR MODULATING SPLICING” (REMIX THERAPEUTICS INC., priority 2023, published 2026).
